Laboratory results from PMC10859787 (Clinical and Translational Science, 2024).

Key:
[1] = Population pharmacokinetic analysis of upadacitinib plasma concentrations; format: in vivo, human; settings: for Cmax: C max; for Cmax / concentration at 24 h / C avg: model-estimated, 15 mg once daily, median (5th to 95th percentile); for concentration at 24 h: C trough
[2] = cited from earlier work
[3] = test system: cytochrome P450 (CYP) 3A; settings: cited from earlier work
[4] = test system: CYP2D6; settings: cited from earlier work
[5] = human, plasma, oral, 15 mg, patients with RA in phase III trials (N = 1592)
[6] = human, plasma, oral, 15 mg, patients with nr-axSpA (N = 71)

- Vd/F ([1]; human, plasma, oral, 15 mg): 171 L
- Cmax [1, 5]: 41.1 ng/mL
- Cmax [1, 6]: 37.3 ng/mL
- concentration at 24 h ([1]; human, plasma, oral, 15 mg, patients with AS (N = 173)): 3.71 ng/mL
- concentration at 24 h [1, 5]: 3.72 ng/mL
- concentration at 24 h [1, 6]: 4.58 ng/mL
- C avg ([1]; patients with AS (N = 173)): 14.5 (9.78, 25.9) ng/mL
- C avg ([1]; patients with RA in phase III trials (N = 1592)): 14.9 (9.74, 29.2) ng/mL
- C avg ([1]; patients with nr-axSpA (N = 71)): 14.8 (10.5, 25.5) ng/mL
SMILES: CC[C@@H]1CN(C(=O)NCC(F)(F)F)C[C@@H]1c1cnc2cnc3[nH]ccc3n12 [upadacitinib]
- dose linearity of pharmacokinetics ([2]; 7.5 to 45 mg q.d. dose range): linear pharmacokinetics
- apparent volume of distribution of the central compartment (population estimate) ([2]; previously developed RA model): 156 L
- substrate for cytochrome P450 (CYP) 3A [3]: substrate
- substrate for CYP2D6 [4]: to a minor extent
